Measured values as given in ChEMBL document CHEMBL3044528, “Potential new fungicides: N-acyl-5-methyl-3(2H)-isoxazolone derivatives” (2012).

Assays:
Assay type in all cases: functional
Fusarium graminearum = assay: Fungicidal activity against Fusarium graminearum H3 assessed as mycelial growth inhibition at 25 mg/L after 3 days; conditions: H3, 72 h, read-out: GI
Alternaria alternata = assay: Fungicidal activity against Alternaria alternata APS-38 assessed as mycelial growth inhibition at 25 mg/L after 3 days; conditions: APS-38, 72 h, read-out: GI
Zymoseptoria tritici = assay: Fungicidal activity against Zymoseptoria tritici S3 assessed as mycelial growth inhibition at 25 mg/L after 14 days; conditions: S3, 336 h, read-out: GI
Gaeumannomyces graminis = assay: Fungicidal activity against Gaeumannomyces graminis MAFF305168 assessed as mycelial growth inhibition at 25 mg/L after 1 day; conditions: MAFF305168, 24 h, read-out: GI
Rhynchosporium secalis = assay: Fungicidal activity against Rhynchosporium secalis IFO-5290 assessed as mycelial growth inhibition at 25 mg/L after 14 days; conditions: IFO-5290, 336 h, read-out: GI
Rhizoctonia solani = assay: Fungicidal activity against Rhizoctonia solani ET0007 assessed as mycelial growth inhibition at 25 mg/L after 1 day; conditions: ET0007, 24 h, read-out: GI
Pyrenophora graminea = assay: Fungicidal activity against Pyrenophora graminea IFO-7507 assessed as mycelial growth inhibition at 25 mg/L after 3 days; conditions: IFO-7507, 72 h, read-out: GI
Microdochium nivale = assay: Fungicidal activity against Microdochium nivale IFO-7432 assessed as mycelial growth inhibition at 25 mg/L after 3 days; conditions: IFO-7432, 72 h, read-out: GI
Cercospora beticola = assay: Fungicidal activity against Cercospora beticola Be-2-6 assessed as mycelial growth inhibition at 25 mg/L after 7 days; conditions: Be-2-6, 168 h, read-out: GI

SMILES	inhibition of growth at 25 µg/mL (Fusarium graminearum) [%]	inhibition of growth at 25 µg/mL (Alternaria alternata) [%]	inhibition of growth at 25 µg/mL (Zymoseptoria tritici) [%]	inhibition of growth at 25 µg/mL (Gaeumannomyces graminis) [%]	inhibition of growth at 25 µg/mL (Rhynchosporium secalis) [%]	inhibition of growth at 25 µg/mL (Rhizoctonia solani) [%]	inhibition of growth at 25 µg/mL (Pyrenophora graminea) [%]	inhibition of growth at 25 µg/mL (Microdochium nivale) [%]	inhibition of growth at 25 µg/mL (Cercospora beticola) [%]
Cc1cc(=O)n(C(=O)C2CCc3ccccc3C2)o1 (configuration not stated)	40	64	95	57	100	50	73	82	80
Cc1cc(=O)n(C(=O)C(C)c2ccccc2)o1 (configuration not stated)	33	48	83	5	99	20	74	55	86
Cc1cc(=O)n(C(=O)/C=C/c2ccc(Cl)cc2)o1	43	54	77	20	100	66	77	45	77
